Results from patent US5409946A, “Isoxazole, isothiazole and pyrazole compounds that enhance cognitive function” (Abbott Laboratories, priority 1993, dated 1995).
pKi: −log10 of the molar value. Entries after “also recorded” stand apart in the source; their conditions may differ. Like-named read-outs stand apart in the source and are kept apart here.

Assays:
[1] = target: neuronal nicotinic receptors; test: Displacement of [3H]-MCC or [3H]-cytisine from neuronal nicotinic receptors, whole rat brain membranes; assay type: binding
Protocol: Binding of [^3 H]-methylcarbamylcholine ([^3 H]-MCC) or [^3 H]-cytisine ([^3 H]-CYT) to nicotinic receptors was accomplished using crude synaptic membrane preparations from whole rat brain (Snyder and Enna, Brain Research, 1975, 100:81). Washed membranes were stored at -80° C. prior to use. Frozen aliquots were slowly thawed and resuspended in 20 volumes of buffer (containing: 120 mM NaCl, 5 mM KCl, 2 mM MgCl2, 2 mM CaCl2 and 50 mM Tris-Cl, pH 7.4 @4° C). After centrifuging at 20,000 X g for 15 minutes, the pellets were resuspended in 30 volumes of buffer. Homogenate (containing 125-150 μg protein) was added to triplicate tubes containing concentrations of test compound and [^3 H]-MCC (3 nM) in a final volume of 500 μL. Samples were incubated for 60 minutes at 4° C., then rapidly filtered through Whatman GF/B filters presoaked in 0.5% polyethylimine using 3×4 mL of ice-cold buffer. Alternately, homogenate and test compound were incubated for 75 min with [^3 H]-CYT (1.3 nM), then rapidly filtered, as described above. The filters are counted in 4 mL of Ecolume® (ICN). […] IC50 values were determined with the ALLFIT nonlinear least squares curve-fitting program and IC50 values were converted to Ki values using the Cheng and Prusoff correction (Ki =IC50 /(1+[ligand]/Kd of ligand)). Alternately, data were expressed as a percentage of the total specific binding.

[2] = tested on: basal forebrain neurotransmission / cortical cerebral blood flow; test: Cerebral blood flow (laser-doppler flowmetry) and mean arterial pressure with basal forebrain stimulation; assay type: in vivo, male Sprague-Dawley rats
Protocol: Methods for surgical preparation of rats for electrical stimulation of brain and measurement of CBF have been previously described (Nakai et al., Am. J. Physiol., 1982, 243: 226) and are summarized below.
Studies are conducted on male Sprague-Dawley rats that are maintained in a thermally-controlled (26°-27° C.), light-cycled (7.00 hour on-19.00 hour off) environment, fed standard rat chow and given water ad libitum. Anesthesia is induced with halothane (3.5%; balance O2) delivered through a nose mask and maintained at 2% during the initial surgery. Thin-wall vinyl catheters (o.d.=0.03 inch) are placed in each femoral artery and vein, and the trachea is cannulated.
Animals are subsequently co-anesthetized with urethane (1.5 g/kg, s.c.) and placed in a stereotaxic frame with the head positioned so that the floor of the IVth ventricle was horizontal (incisor bar position: -11 mm. ). After connecting the tracheal cannula to a small-animal respirator, the animals are temporarily paralyzed with d-tubocurarine (0.6 mg/kg/h, i.m.), and ventilated (80 cpm) with 100% O2. Arterial pressure (AP) and heart rate (HR) are continuously monitored through one of the arterial catheters connected to a Statham P23Db transducer that is coupled to a chart recorder. The level of anesthesia during surgery or subsequent experimental testing is assessed by the AP response to tail pinch, with increasing levels of arousal giving rise to irregular AP readings. Booster doses of urethane (250 mg/kg, s.c.) are given as needed.
Bilateral craniotomies (approximately 4 mm×11 mm) are performed overlying the frontoparietal cortices taking care to leave the dura intact. Halothane is delivered at a reduced rate of 1% during cranial surgery and discontinued afterward. A small volume (about 0.2 ml) of arterial blood is sampled after completion of all surgery for measurement of PO2, PCO2 and pH by a blood gas analyzer. Arterial blood gases are maintained so that PO2 was greater than 100 mm Hg, PCO2 =33-38 mmHg, and pH=7.35-7.45. Maintaining these values is accomplished by adjusting the stroke volume of the ventilator. Once appropriate physiological parameters are obtained (approximately 30 min), the experimental protocol is initiated.
The basal forebrain (BF) is stimulated with cathodal current delivered through a stainless steel concentric bipolar electrode ([…]) made by Rhodes Medical Instruments (Model SNEX-100). Electrical pulses are generated by a square wave stimulator (Grass, Model S-88) and constant current is passed through a photoelectric stimulus-isolation unit (Grass, Model PSIU6). The stimulus current is measured on an oscilloscope by continuously displaying the voltage drop across a 10-ohm resistor.
The procedure for eliciting an increased cortical CBF response requires the stereotaxic placement of the stimulating electrode into the BF. For positioning, the electrode is inclined posteriorly to 18 degrees, and the stereotaxic coordinates used were 5.0 mm posterior to, and 2.6 mm lateral to bregma (stereotaxic zero reference point). […] These parameters have been shown previously to elicit maximal increases in cortical CBF (Arneric, Excerpta Medica International Congress Series, 869:381, 1989). The region of the BF that selectively affects cortical CBF is restricted, with electrode movements of 0.5 mm dorsal or ventral to this site eliciting potent vasodepressor responses in addition to the increases in CBF. […] When CBF increases of approximately 100% or greater are repeatedly obtained in the absence of significant changes in AP (<10 mm Hg) or HR (<10 beats/min.), and when the perfusion rate is stable in the absence of BF stimulation, the experimental testing is started.
The principles and technical aspects of laser-doppler flowmetry (LDF) are presented in detail in Bonner et al., Appl. Opt., 1981, 20:2097 and Stern et al., Am. J. Physiol., 1977, 232:H441. […]

## Cc1cc([C@@H]2CCCN2C)on1.O=C(O)C(=O)O [Example 2, 3-Methyl-5-(1-methyl-2(S)-pyrrolidinyl)-isoxazole oxalate salt]
[1]; Table 1, oxalate salt, read-out: Nicotinic Receptor Ki
  pKi: 8.30
[1]; Table 2, read-out: Nicotinic Ki
  pKi: 8.30
[2]; 0.004 μmol/kg i.v.
  BF-elicited CBF % change from pre-drug control: +68%
  MAP % change from pre-drug control: +5%
  resting CBF % change from pre-drug control: +5%
[2]; 0.040 μmol/kg i.v.
  MAP % change from pre-drug control: -5%
  resting CBF % change from pre-drug control: -2%
[2]; 0.040 μmol/kg i.v., *p < 0.05
  BF-elicited CBF % change from pre-drug control: +60%
[2]; 0.400 μmol/kg i.v.
  MAP % change from pre-drug control: -13%
  resting CBF % change from pre-drug control: -6%
[2]; 0.400 μmol/kg i.v., *p < 0.05
  BF-elicited CBF % change from pre-drug control: +68%
[2]; i.v., low concentrations, n=3
  effect on resting CBF and the BF-elicited CBF response: effective in enhancing resting CBF and the BF-elicited CBF response
[2]; i.v., oxalate salt
  effects on MAP / blood pressure: No remarkable effects on MAP; also recorded: no overt effects on blood pressure
